Results: patent US8975415B2, “Chromane compounds” (CoMentis, Inc., priority 2012, dated 2015)
pIC50, pKi: −log10 of the molar value.

Key:
BACE1 [1] = biological target: T1, BACE1 (Homo sapiens (Human), UniProt P56817); assay: Measurement of BACE1 inhibition by fluorescence resonance energy transfer (FRET), MCA substrate; conditions: for pIC50: read-out: Test Example 1 IC50, MCA-SEVNLDAEFK(DNP)-NH2 substrate, pH 4.4; for pIC50 / pKi: FRET; for pKi: read-out: Test Example 1 BACE1 MCA Ki, MCA substrate
Target sequence in this assay (P56817 75-416): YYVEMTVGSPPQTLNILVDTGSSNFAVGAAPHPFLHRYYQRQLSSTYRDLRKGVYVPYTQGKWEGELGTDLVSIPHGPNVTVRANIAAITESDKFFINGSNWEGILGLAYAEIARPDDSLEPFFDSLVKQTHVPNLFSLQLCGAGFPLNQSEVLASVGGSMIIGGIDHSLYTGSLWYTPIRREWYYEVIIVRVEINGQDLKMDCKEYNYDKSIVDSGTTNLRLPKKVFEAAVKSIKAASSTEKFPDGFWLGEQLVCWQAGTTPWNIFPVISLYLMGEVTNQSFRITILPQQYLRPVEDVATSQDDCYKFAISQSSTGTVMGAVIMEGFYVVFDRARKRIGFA

BACE1 [2] = biological target: T1, BACE1; assay: Measurement of Aβ production inhibition in cell (SK-N-BE(2) neuroblastoma cells, Aβ40 ELISA); conditions: SK-N-BE(2) cells, 6 hours
Target sequence in this assay (P56817 46-501): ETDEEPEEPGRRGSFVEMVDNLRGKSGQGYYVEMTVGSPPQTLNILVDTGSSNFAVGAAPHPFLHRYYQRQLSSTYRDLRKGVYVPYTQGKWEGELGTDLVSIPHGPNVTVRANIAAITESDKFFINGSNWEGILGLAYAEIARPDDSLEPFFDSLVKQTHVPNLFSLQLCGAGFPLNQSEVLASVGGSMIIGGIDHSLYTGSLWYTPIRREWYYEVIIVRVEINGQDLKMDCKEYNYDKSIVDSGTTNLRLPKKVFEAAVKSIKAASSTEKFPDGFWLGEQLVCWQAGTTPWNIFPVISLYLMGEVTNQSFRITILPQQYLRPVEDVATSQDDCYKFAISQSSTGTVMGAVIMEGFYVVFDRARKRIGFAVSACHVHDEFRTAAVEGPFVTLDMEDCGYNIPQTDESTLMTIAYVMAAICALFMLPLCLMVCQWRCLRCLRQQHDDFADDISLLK
Protocol: The potency of compounds against BACE1 activity was determined in a cellular assay of Aβ production. […] Test compounds were dissolved in dimethyl sulfoxide and diluted with dimethyl sulfoxide and put into RPMI1640/5% FBS/penicillin-streptomycin media (final dimethyl sulfoxide concentration is 0.5%). […] CellTiter-Glo Substrate was dissolved into CellTiter-Glo Buffer and added to the plates in 95 μL/well. After shaking the plates for 2 minutes, the whole sample was transferred into a white 96-well plate and luminescence was measured for ATP quantification as the cell viability. Aβ concentration measured by ELISA was normalized by the viability of the corresponding cells.

[3] = Test Example 3 IC50, Aβ40 production
[4] = read-out: Test Example 3 IC50, Aβ40 production

Row | SMILES | pIC50 (BACE1 [1]) | further results
1 | COc1cncc(-c2ccc3c(c2)[C@@]2(COC(N)=N2)C2(COC2)[C@@H](C)O3)c1 (racemic) [RP 81] | 5.72 | pIC50 (BACE1 [2]; [3]): 6.29
2 | NC1=NC2(CO1)c1cc(Br)ccc1OCC21CCCO1 (single isomer, unassigned) [RP 1a, 6′-bromo-4,5-dihydro-3H-dispiro[furan-2,3′-chromene-4′,4″-[1,3]oxazol]-2″-amine] | 4.13 | 
3 | NC1=NC2(CO1)c1cc(Br)ccc1OCC21CCCO1 (single isomer, unassigned) [RP 1b, 6′-bromo-4,5-dihydro-3H-dispiro[furan-2,3′-chromene-4′,4″-[1,3]oxazol]-2″-amine] | 3.86 | 
4 | CCC1Oc2ccc(Br)cc2C2(COC(N)=N2)C12COC2 (single isomer, unassigned) [RP 9a] | 4.76 | 
5 | CCC1Oc2ccc(Br)cc2C2(COC(N)=N2)C12COC2 (single isomer, unassigned) [RP 9b] | 4.61 | 
6 | CCCC1Oc2ccc(Br)cc2C2(C=C(N)OC2)C12COC2 (single isomer, unassigned) [RP 11a] | 4.81 | 
7 | CCCC1Oc2ccc(Br)cc2C2(C=C(N)OC2)C12COC2 (single isomer, unassigned) [RP 11b] | 4.76 | 
8 | NC1=NC2(CO1)c1cc(Br)ccc1OC(C1CC1)C21COC1 (single isomer, unassigned) [RP 12a] | 4.41 | 
9 | NC1=NC2(CO1)c1cc(Br)ccc1OC(C1CC1)C21COC1 (single isomer, unassigned) [RP 12b] | 4.09 | 
10 | CC(C)CC1Oc2ccc(Br)cc2C2(COC(N)=N2)C12COC2 (single isomer, unassigned) [RP 13a] | 4.95 | 
11 | CC(C)CC1Oc2ccc(Br)cc2C2(COC(N)=N2)C12COC2 (single isomer, unassigned) [RP 13b] | 4.71 | 
12 | NC1=NC2(CO1)c1cc(Br)ccc1OC(CCC(F)(F)F)C21COC1 (single isomer, unassigned) [RP 14a] | 4.72 | 
13 | NC1=NC2(CO1)c1cc(Br)ccc1OC(CCC(F)(F)F)C21COC1 (single isomer, unassigned) [RP 14b] | 4.35 | 
14 | CC1(C)Oc2ccc(-c3cncnc3)cc2C2(COC(N)=N2)C12COC2 (single isomer, unassigned) [RP 51a, 2′,2′-dimethyl-6′-(pyrimidin-5-yl)dispiro[1,3-oxazole-4,4′-chromene-3′,3″-oxetan]-2-amine] | 4.31 | 
15 | CC1(C)Oc2ccc(-c3cncnc3)cc2C2(COC(N)=N2)C12COC2 (single isomer, unassigned) [RP 51b, 2′,2′-dimethyl-6′-(pyrimidin-5-yl)dispiro[1,3-oxazole-4,4′-chromene-3′,3″-oxetan]-2-amine] | 6.76 | pKi (BACE1 [1]): 6.86; pIC50 (BACE1 [2]; [3]): 7.14
16 | COc1cnc(C(=O)Nc2ccc3c(c2)C2(COC(N)=N2)C2(COC2)C(C)(C)O3)cn1 (stereo in doubt) [Example 229a, N-[(4S)-2-amino-2′,2′-dimethyldispiro[1,3-oxazole-4,4′-chromene-3′,3″-oxetan]-6′-yl]-5-methoxypyrazine-2-carboxamide] |  | inhibition at 30 µM (BACE1 [1]; read-out: Test Example 1 inhibition): 47.6%
17 | CC1(C)Oc2ccc(NC(=O)c3ccc(F)cn3)cc2C2(COC(N)=N2)C12COC2 (centres unmarked) [Example 28] |  | pKi (BACE1 [1]): 6.93; pIC50 (BACE1 [2]; [4]): 7.72
18 | CC1(C)Oc2ccc(NC(=O)c3ncc(Cl)cc3F)cc2C2(COC(N)=N2)C12COC2 (centres unmarked) [Example 30] |  | pKi (BACE1 [1]): 7.29; pIC50 (BACE1 [2]; [4]): 8.64
19 | NC1=NC2(CO1)c1cc(Br)ccc1OCC21COC1 (centres unmarked) [RP 2] | 4.22 | 
20 | NC1=NC2(CO1)c1cc(Br)ccc1OC1(CCC1)C21COC1 (centres unmarked) [RP 3] | 4.47 | 
21 | NC1=NC2(CO1)c1cc(Br)ccc1OCC21CCC1 (centres unmarked) [RP 8] | 4.21 | 
22 | NC1=NC2(CO1)c1cc(Br)ccc1OCC21CC1 (centres unmarked) [RP 17] | 4.52 | 

Row | SMILES | pIC50 (BACE1 [1]) | further results
23 | NC1=NC2(CO1)c1cc(Br)c(F)cc1OCC21CC1 (centres unmarked) [RP 18] | 4.38 | 
24 | COCC#Cc1cncc(-c2ccc3c(c2)C2(COC(N)=N2)C2(COC2)CO3)c1 (centres unmarked) [RP 19, 6′-[5-(3-methoxyprop-1-yn-1-yl)pyridin-3-yl]dispiro[1,3-oxazole-4,4′-chromene-3′,3″-oxetan]-2-amine] | 5.64 | pIC50 (BACE1 [2]; [3]): 6.37
25 | C#Cc1cncc(-c2ccc3c(c2)C2(COC(N)=N2)C2(COC2)CO3)c1 (centres unmarked) [RP 23] | 6.28 | pIC50 (BACE1 [2]; [3]): 6.05
26 | NC1=NC2(CO1)c1cc(Nc3ccccn3)ccc1OCC21COC1 (centres unmarked) [RP 25] | 4.43 | 
27 | COc1cccnc1Nc1ccc2c(c1)C1(COC(N)=N1)C1(COC1)CO2 (centres unmarked) [RP 26] | 5.43 | pIC50 (BACE1 [2]; [3]): 7.16
28 | NC1=NC2(CO1)c1cc(NC(=O)c3ccc(F)cn3)ccc1OCC21CC1 (centres unmarked) [RP 31, N-(2″-aminodispiro[cyclopropane-1,3′-chromene-4′,4″-[1,3]oxazol]-6′-yl)-5-fluoropyridine-2-carboxamide] | 5.97 | pKi (BACE1 [1]): 5.99; pIC50 (BACE1 [2]; [3]): 7.21
29 | NC1=NC2(CO1)c1cc(NC(=O)c3ccc(Cl)cn3)ccc1OCC21CC1 (centres unmarked) [RP 32] |  | pKi (BACE1 [1]): 6.42
30 | COc1ccc(F)c(-c2ccc3c(c2)C2(COC(N)=N2)C2(COC2)CO3)c1 (centres unmarked) [RP 33] | 5.82 | pIC50 (BACE1 [2]; [3]): 6.02
31 | COCCCc1ccc2c(c1)C1(COC(N)=N1)C1(COC1)CO2 (centres unmarked) [RP 35] | 4.59 | 
32 | NC1=NC2(CO1)c1cc(-c3cncnc3)ccc1OCC21COC1 (centres unmarked) [RP 36] | 5.54 | pIC50 (BACE1 [2]; [3]): 6.09
33 | Cc1cccc(CCc2ccc3c(c2)C2(COC(N)=N2)C2(COC2)CO3)c1 (centres unmarked) [RP 38] | 4.76 | 
34 | NC1=NC2(c3cc(Br)ccc3OCC23CC3)c2cccc(F)c21 (centres unmarked) [RP 40, 6′-bromo-4″-fluorodispiro[cyclopropane-1,3′-chromene-4′,1″-isoindol]-3″-amine] | 4.33 | 
35 | NC1=NC2(CS1)c1cc(Br)ccc1OCC21COC1 (centres unmarked) [RP 41, 6′-bromodispiro[oxetane-3,3′-chromene-4′,4″-[1,3]thiazol]-2″-amine] | 4.61 | pIC50 (BACE1 [2]; [3]): < 4.52
36 | NC1=NC2(CO1)c1cc(Nc3ncccc3Cl)ccc1OC1(CCC1)C21COC1 (centres unmarked) [RP 44] | 6.22 | pIC50 (BACE1 [2]; [3]): 7.01
37 | CCC(CC)Cc1ccc2c(c1)C1(COC(N)=N1)C1(COC1)C1(CCC1)O2 (centres unmarked) [RP 47] | 5.63 | pIC50 (BACE1 [2]; [3]): 5.85
38 | NC1=NC2(CO1)c1cc(-c3cncc(C#CC4CC4)c3)ccc1OC1(CCC1)C21COC1 (centres unmarked) [RP 48, 6′-[5-(cyclopropylethynyl)pyridin-3-yl]trispiro[cyclobutane-1,2′ chromene-4′,4″-[1,3]oxazole-3′,3′″-oxetan]-2″-amine] | 5.95 | pIC50 (BACE1 [2]; [3]): 6.16
39 | CC#Cc1ccnc(-c2ccc3c(c2)C2(COC(N)=N2)C2(COC2)CO3)c1 (centres unmarked) [RP 56] |  | pIC50 (BACE1 [2]; [3]): 6.13
40 | NC1=NC2(CO1)c1cc(-c3cncc(OCC(F)(F)F)c3)ccc1OCC21CC1 (centres unmarked) [RP 58] | 5.83 | pIC50 (BACE1 [2]; [3]): 6.74
41 | NC1=NC2(CO1)c1cc(-c3cncc(OC(F)F)c3)ccc1OCC21CC1 (centres unmarked) [RP 60] | 5.83 | pIC50 (BACE1 [2]; [3]): 6.80
42 | NC1=NC2(CO1)c1cc(-c3cncc(OCC(F)(F)C(F)F)c3)ccc1OCC21CC1 (centres unmarked) [RP 64] | 5.21 | pIC50 (BACE1 [2]; [3]): 5.64
43 | Cc1ncccc1-c1ccc2c(c1)C1(COC(N)=N1)C1(COC1)C1(CCC1)O2 (centres unmarked) [RP 74] | 4.45 | 
44 | NC1=NC2(CO1)c1cc(-c3cncnc3)ccc1OC(C1CC1)C21COC1 (centres unmarked) [RP 89] | 5.33 | 

Row | SMILES | pIC50 (BACE1 [1]) | further results
45 | NC1=NC2(CO1)c1cc(-c3cncnc3)ccc1OCC21CCCO1 (centres unmarked) [RP 98] | 4.19 | 
46 | NC1=NC2(COC1)c1cc(Br)ccc1OCC21COC1 (centres unmarked) [RP 114, 6′-bromo-6H-dispiro[1,4-oxazine-3,4′-chromene-3′,3″-oxetan]-5-amine] | 4.17 | 
47 | NC1=NC2(CO1)c1cc(-c3ccc(F)nc3)ccc1OC1(CCC1)C21COC1 (centres unmarked) [RP 119] | 5.45 | 
48 | NC1=NC2(CO1)c1cc(-c3ccc(F)nc3F)ccc1OC1(CCC1)C21COC1 (centres unmarked) [RP 121] | 5.47 | 
49 | NC1=NC2(CO1)c1cc(-c3ccccc3)ccc1OC1(CCC1)C21COC1 (centres unmarked) [RP 123] | 5.47 | 
50 | NC1=NC2(CO1)c1cc(-c3ccccc3F)ccc1OC1(CCC1)C21COC1 (centres unmarked) [RP 124] | 5.44 | 
51 | N#Cc1cc(-c2ccc3c(c2)C2(COC(N)=N2)C2(COC2)C2(CCC2)O3)ccc1F (centres unmarked) [RP 134] | 5.44 | 
52 | CC1(C)Oc2ccc(-c3cccc(OCC(F)(F)F)c3)cc2C2(COC(N)=N2)C12COC2 (centres unmarked) [RP 143] | 5.90 | 
53 | CCSc1cccc(-c2ccc3c(c2)C2(COC(N)=N2)C2(COC2)C(C)(C)O3)c1 (centres unmarked) [RP 145] | 6.03 | 
54 | CC1(C)Oc2ccc(-c3ccnc(Cl)c3Cl)cc2C2(COC(N)=N2)C12COC2 (centres unmarked) [RP 159] | 5.67 | 
55 | CC1(C)Oc2ccc(-c3cncc(C#N)c3)cc2C2(COC(N)=N2)C12COC2 (centres unmarked) [RP 160] | 6.01 | 
56 | COc1cc(-c2ccc3c(c2)C2(COC(N)=N2)C2(COC2)C(C)(C)O3)c(F)cn1 (centres unmarked) [RP 161] | 5.85 | 
57 | COc1cc(-c2ccc3c(c2)C2(COC(N)=N2)C2(COC2)C(C)(C)O3)c(Cl)cn1 (centres unmarked) [RP 162] | 5.98 | 
58 | CC1(C)Oc2ccc(C3=CCCCCC3)cc2C2(COC(N)=N2)C12COC2 (centres unmarked) [RP 165] | 6.12 | 
59 | CC1CC=C(c2ccc3c(c2)C2(COC(N)=N2)C2(COC2)C(C)(C)O3)CC1 (centres unmarked) [RP 166] | 5.44 | 
60 | CCC/C=C/c1ccc2c(c1)C1(COC(N)=N1)C1(COC1)C(C)(C)O2 (centres unmarked) [RP 167] | 6.06 | 
61 | NC1=NC2(CO1)c1cc(Br)ccc1OCC21CC(F)(F)C1 (centres unmarked) [RP 188] | 4.30 | 
62 | NC1=NC2(CO1)c1cc(-c3cccnc3C(F)(F)F)ccc1OC1(CCC1)C21COC1 (centres unmarked) [RP 212] | 4.75 | 
63 | NC1=NC2(COC1)c1cc(Br)ccc1OCC21CC1 (centres unmarked) [RP 214, 6′-bromo-6″H-dispiro[cyclopropane-1,3′-chromene-4′,3″-[1,4]oxazin]-5″-amine] | 4.39 | 
64 | NC1=NC2(c3cc(Br)ccc3OCC23CC3)C(F)(F)CO1 (centres unmarked) [RP 216, 6′-bromo-5″,5″-difluoro-5″,6″-dihydrodispiro[cyclopropane-1,3′-chromene-4′,4″-[1,3]oxazin]-2″-amine] | 4.25 | 
